{"source": "patent US7491501B2", "about": "“Methods for identifying modulators of intracellular aggregate formation” (Auburn University, priority 2003, dated 2009)", "key": {"[1]": {"biological_target": "T1, p62-TRAF6 interaction (Homo sapiens, UniProt Q9Y4K3)", "T1 construct": "endogenous in cells; host or cells: HEK 293", "T1 sequence (Q9Y4K3 1-522)": "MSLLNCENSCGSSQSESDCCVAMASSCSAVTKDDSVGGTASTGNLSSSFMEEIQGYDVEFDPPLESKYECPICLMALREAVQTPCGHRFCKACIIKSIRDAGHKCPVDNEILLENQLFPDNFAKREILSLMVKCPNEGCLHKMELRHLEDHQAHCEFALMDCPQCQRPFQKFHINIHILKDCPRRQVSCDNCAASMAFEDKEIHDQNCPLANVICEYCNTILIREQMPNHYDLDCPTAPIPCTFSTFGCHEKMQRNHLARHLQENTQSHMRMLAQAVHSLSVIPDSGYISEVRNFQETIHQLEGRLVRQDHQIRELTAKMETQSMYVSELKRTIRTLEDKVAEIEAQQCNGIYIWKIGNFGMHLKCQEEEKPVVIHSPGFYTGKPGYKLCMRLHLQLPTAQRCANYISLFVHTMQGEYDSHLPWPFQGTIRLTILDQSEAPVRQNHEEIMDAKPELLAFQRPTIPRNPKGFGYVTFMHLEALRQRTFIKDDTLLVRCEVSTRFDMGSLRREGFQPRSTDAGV", "assay": "p62-TRAF6 interaction in HEK cells after IL-1 stimulation, p62 UBA domain pull-down (FIG. 2C)", "assay_type": "cell-based", "conditions": "increasing doses of peptide", "method": "GST Pull-Down Assay—Glutathione beads coupled with p62 UBA domain were washed three times with binding buffer (20 mM Tris-HCl, pH 7.6, 50 mM NaCl, 0.1% Nonidet P-40, […], 1 mM phenylmethylsulfonyl fluoride) containing 25 μg/ml of BSA. For each mg of lysate, 2.5 μg of GST-UBA domain was added and rotated for 2 h at room temperature. The beads were washed 3 times with binding buffer and boiled in SDS-PAGE sample buffer, followed by separation employing a 7.5% SDS-gel, and western blotting with appropriate antibody.\nA peptide (plain type, SEQ ID NO. 6) containing the TRAF6-binding motif present in p62 (underlined type) along with the hydrophobic sequence containing the cell-permeable motif (italicized type) from Kaposi fibroblast growth factor signal sequence was synthesized ([…]-[…]) (SEQ ID NO. 4) or a control peptide with mutant amino acids in the interaction motif (AAVA […]-[…])(SEQ ID NO. 5). […] HEK cells were treated or not with increasing doses of control or TRAF6 inhibitory peptide, followed by stimulation with IL-1. Lysates were prepared and included in a pull-down employing the UBA domain of p62. Should the p62-UBA domain bind K63-polyubiquitinated substrate proteins, a dose-dependent reduction in interaction of the lysates would occur with lysates prepared from cells pretreated with TRAF6 inhibitory peptide. In fact, this is what was found (FIG. 2C)."}, "[2]": {"system": "TrkA", "assay": "NGF-dependent TrkA ubiquitination and TrkA complex formation in PC12 cells (FIG. 15B, 15C)", "assay_type": "cell-based", "conditions": "TrkA immunoprecipitation", "method": "The peptide containing the TRAF6-binding motif in p62 along with the hydrophobic sequence containing the cell-permeable motif from Kaposi fibroblast growth factor signal sequence […]-[…] (SEQ ID NO. 4) and control peptide […]-[…] (SEQ ID NO. 5) was synthesized. As a preliminary step, PC12 cells were pretreated with different concentrations (75-300 μM) of TRAF6 peptide for 5 hours followed by NGF stimulation for 15 min and immunoprecipitation of TRAF6 followed by Western blotting for p62. […] To address whether TRAF6 peptide affects the interaction of p62 and UbcH7 with TRAF6, PC12 cells were treated with or without 150 μM of control peptide or TRAF6 peptide for 5 hours and then stimulated with NGF for 15 min. By immunoprecipitating TRAF6, TRAF6 peptide (150 μM) abrogated the interaction of p62 with TRAF6, but not UbcH7, upon NGF treatment (FIG. 8A). […] The ability of the TRAF6 peptide to impair the ubiquitination process was investigated. Lysates recovered from NGF treated cells were immunoprecipitated with TrkA receptor antibody and blotted for ubiquitin or the receptor (FIG. 15B). […] The ability of the peptide to interrupt the formation of the functional TrkA-p62-TRAF6-UbcH7 complex on NGF stimulation as well was also investigated. TrkA was immunoprecipitated and blotted for the presence of each protein in the complex (FIG. 15C)."}}, "data": [{"substance": "AAVALLPAVLLALLAP-ESASGPSEDPSVNFLK (AAVALLPAVLLALLAPESASGPSEDPSVNFLK; artificial sequence for cell permeable peptide) [TRAF6 peptide]", "values": [{"measurement": "p62-TRAF6 interaction", "setting": "[1]", "result": "blocked p62-TRAF6 interaction in a dose-dependent fashion"}, {"measurement": "TRAF6 and UbcH7 interacting with TrkA", "setting": "[2]; NGF stimulation", "result": "eliminated"}, {"measurement": "interaction of p62 and TrkA", "setting": "[2]; NGF stimulation", "result": "did not disrupt"}, {"measurement": "NGF-dependent ubiquitination of TrkA", "setting": "[2]; NGF treated", "result": "effectively abolish"}]}]}
